Entries after “also recorded” stand apart in the source; their conditions may differ. Marks after values point to notes of the source that are not given here.
Columns and labels:
[1] = test system: patients with advanced solid tumours; test: Phase I study of olaparib capsules plus PLD; format: in vivo
[2] = ref Fong et al, 2009; cited from earlier work
[3] = all olaparib cohorts + PLD 40 mg m^−2, Total (n=44)
[4] = olaparib 50 mg bid 7 day + PLD 40 mg m^−2 (n=3)
[5] = olaparib 100 mg bid 7 day + PLD 40 mg m^−2 (n=3)
[6] = olaparib 100 mg bid 28 day + PLD 40 mg m^−2 (n=4)
[7] = olaparib 200 mg bid 7 day + PLD 40 mg m^−2 (n=3)
[8] = olaparib 200 mg bid 28 day + PLD 40 mg m^−2 (n=7)
[9] = olaparib 400 mg bid 7 day + PLD 40 mg m^−2 (n=12)
[10] = olaparib 400 mg bid 28 day + PLD 40 mg m^−2 (n=12)
[11] = olaparib + PLD, all cohorts (n=2)
[12] = olaparib + PLD, all cohorts, n=44

## O=C(c1cc(Cc2n[nH]c(=O)c3ccccc23)ccc1F)N1CCN(C(=O)C2CC2)CC1 [olaparib]
[1]; [3]
  Anorexia, patients with grade ⩾3 AE: 2 (5) n (%)
  Anorexia, patients with treatment-related AE: 12 (27) n (%)
  Asthenia, patients with grade ⩾3 AE: 1 (2) n (%)
  Asthenia, patients with treatment-related AE: 21 (48) n (%)
  Decreased neutrophil count, patients with grade ⩾3 AE: 9 (20) n (%)
  Decreased neutrophil count, patients with treatment-related AE: 13 (30) n (%)
  Nausea, patients with grade ⩾3 AE: 5 (11) n (%)
  Nausea, patients with treatment-related AE: 28 (64) n (%)
  PPES, patients with grade ⩾3 AE: 1 (2) n (%)
  PPES, patients with treatment-related AE: 11 (25) n (%)
  Stomatitis, patients with grade ⩾3 AE: 7 (16) n (%)
  Stomatitis, patients with treatment-related AE: 32 (73) n (%)
  Vomiting, patients with grade ⩾3 AE: 1 (2) n (%)
  Vomiting, patients with treatment-related AE: 13 (30) n (%)
[1]; [4]
  Asthenia, patients with treatment-related AE: 2 n
  Decreased neutrophil count, patients with grade ⩾3 AE: 2 n
  Decreased neutrophil count, patients with treatment-related AE: 2 n
  Nausea, patients with treatment-related AE: 3 n
  Stomatitis, patients with treatment-related AE: 3 ^b n
[1]; [5]
  Asthenia, patients with treatment-related AE: 1 n
  Decreased neutrophil count, patients with grade ⩾3 AE: 3 n
  Decreased neutrophil count, patients with treatment-related AE: 3 n
  Nausea, patients with grade ⩾3 AE: 1 n
  Nausea, patients with treatment-related AE: 2 n
  Stomatitis, patients with grade ⩾3 AE: 2 ^c n
  Stomatitis, patients with treatment-related AE: 3 n
  Vomiting, patients with treatment-related AE: 1 n
[1]; [6]
  Anorexia, patients with grade ⩾3 AE: 1 n
  Anorexia, patients with treatment-related AE: 1 n
  Asthenia, patients with treatment-related AE: 2 n
  Decreased neutrophil count, patients with grade ⩾3 AE: 1 n
  Decreased neutrophil count, patients with treatment-related AE: 2 n
  Nausea, patients with treatment-related AE: 2 n
  Stomatitis, patients with treatment-related AE: 2 n
[1]; [7]
  Asthenia, patients with treatment-related AE: 2 n
  Decreased neutrophil count, patients with treatment-related AE: 1 n
  Nausea, patients with treatment-related AE: 2 n
  PPES, patients with treatment-related AE: 1 n
  Stomatitis, patients with treatment-related AE: 2 n
[1]; [8]
  Anorexia, patients with grade ⩾3 AE: 1 n
  Anorexia, patients with treatment-related AE: 3 n
  Asthenia, patients with treatment-related AE: 2 n
  Decreased neutrophil count, patients with grade ⩾3 AE: 1 n
  Decreased neutrophil count, patients with treatment-related AE: 1 n
  Nausea, patients with treatment-related AE: 3 n
  PPES, patients with treatment-related AE: 2 n
  Stomatitis, patients with grade ⩾3 AE: 1 n
  Stomatitis, patients with treatment-related AE: 5 n
  Vomiting, patients with treatment-related AE: 3 n
[1]; [9]
  Anorexia, patients with treatment-related AE: 4 n
  Asthenia, patients with grade ⩾3 AE: 1 n
  Asthenia, patients with treatment-related AE: 6 n
  Decreased neutrophil count, patients with grade ⩾3 AE: 1 n
  Decreased neutrophil count, patients with treatment-related AE: 2 n
  Nausea, patients with grade ⩾3 AE: 4 n
  Nausea, patients with treatment-related AE: 8 n
  PPES, patients with treatment-related AE: 4 n
  Stomatitis, patients with grade ⩾3 AE: 2 n
  Stomatitis, patients with treatment-related AE: 6 n
  Vomiting, patients with grade ⩾3 AE: 1 n
  Vomiting, patients with treatment-related AE: 6 n
[1]; [10]
  Anorexia, patients with treatment-related AE: 4 n
  Asthenia, patients with treatment-related AE: 6 n
  Decreased neutrophil count, patients with grade ⩾3 AE: 1 n
  Decreased neutrophil count, patients with treatment-related AE: 2 n
  Nausea, patients with treatment-related AE: 8 n
  PPES, patients with grade ⩾3 AE: 1 n
  PPES, patients with treatment-related AE: 4 n
  Stomatitis, patients with grade ⩾3 AE: 2 n
  Stomatitis, patients with treatment-related AE: 11 n
  Vomiting, patients with treatment-related AE: 3 n
[1]; olaparib + PLD, all cohorts
  patients with alterations in neutrophil count: 30%
[1]; [11]
  Grade ⩾3 haematologic alterations: haemoglobin: 5%
  Grade ⩾3 haematologic alterations: white blood cells: 5%
[1]; olaparib + PLD, all cohorts (n=3)
  Grade ⩾3 haematologic alterations: platelets: 7%
[1]; [12]
  alterations in neutrophil count reported as AEs: 13 n
  overall incidence of CTCAE grade ⩾3 events: 61%
  patients discontinued/withdrawn because of treatment-related AEs: seven
  patients who died during the study: Five
  patients with treatment-related serious AEs: five
[1]; olaparib + PLD, all cohorts, n=44 (12 patients)
  patients with serious AEs: 27%
[1]; olaparib + PLD, 100 mg 28-day, 200 mg 28-day and 400 mg 7-day cohorts
  patients with serious AEs of pneumonitis: three
[1]; up to continuous olaparib 400 mg bid + PLD 40 mg m^−2
  MTD of olaparib with PLD: not reached; also recorded: could not be determined
[2]
  MTD of olaparib monotherapy (capsule formulation): 400 mg twice daily (bid)
